The values below come from PubChem BioAssay (NCI).

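These data come from cells grown in 96-well plates and exposed to compound for 48 hours at five concentrations. TGI is the concentration that stops growth completely.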 Where a SMILES comes first, the peptide text is derived from it. [ ]: non-standard residue; d: D form. The star is where a group is joined. NMeAc5c = CNC1(C(=O)O)CCCC1; Boc = CC(C)(C)OC(=O)*; OBn = c1ccc(CO*)cc1

Among the test systems are CCRF-CEM leukemia; DLD-1 colon; DMS 273 small cell lung; K-562 leukemia; KM12 colon; KM20L2 colon; M14 melanoma; MOLT-4 leukemia; UO-31 renal; SK-MEL-5 melanoma.
Experiment in all cases: NCI tumour cell line growth inhibition, 48 h

As to `CC(C)CCS(=O)(=O)OCCCCOS(=O)(=O)CCC(C)C`, the TGI in the experiment with CCRF-CEM leukemia, with DLD-1 colon, in the experiment with DMS 273 small cell lung, in the experiment with K-562 leukemia, with KM12 colon and in the experiment with KM20L2 colon was > 100 µM throughout. In addition, the TGI in the experiment with M14 melanoma is 29.6 µM; in the experiment on MOLT-4 leukemia, > 100 µM; in the experiment on UO-31 renal it was > 100 µM.
For the compound `COC(=O)c1ccccc1CC1Cc2ccc3c(c2C1=O)CCCC3` (stereo not drawn), the TGI with CCRF-CEM leukemia was > 86.5 µM; in the experiment with K-562 leukemia, > 100 µM; with KM12 colon, > 100 µM; with M14 melanoma it was > 100 µM; in the experiment with MOLT-4 leukemia, 46.5 µM; in the experiment with SK-MEL-5 melanoma, 34.8 µM. In addition, the TGI in the experiment with UO-31 renal is > 100 µM.
`N#Cc1c(N2CCCC2)ncn(-c2ccccc2)c1=O`: the TGI in the experiment on CCRF-CEM leukemia, in the experiment with K-562 leukemia, in the experiment with KM12 colon, in the experiment on M14 melanoma, in the experiment on MOLT-4 leukemia and in the experiment with SK-MEL-5 melanoma was > 100 µM throughout. For the same compound, the TGI in the experiment on UO-31 renal was > 100 µM.
As to `COC(=O)c1c(C)cccc1C1CN=NC12Cc1ccc(C)cc1C2=O` (stereo not drawn), the TGI was > 100 µM in the experiment on CCRF-CEM leukemia; > 100 µM with K-562 leukemia; > 100 µM in the experiment with KM12 colon; > 100 µM in the experiment on M14 melanoma; 84.7 µM with MOLT-4 leukemia; 44.1 µM with SK-MEL-5 melanoma. The TGI with UO-31 renal was > 100 µM.
As for `C1CN(c2nc3c(nnc4nc(N5CCOCC5)sc43)s2)CCO1`, the TGI with CCRF-CEM leukemia, with K-562 leukemia, in the experiment with KM12 colon, in the experiment on M14 melanoma, in the experiment on MOLT-4 leukemia and with SK-MEL-5 melanoma was > 100 µM throughout. Moreover, the TGI in the experiment on UO-31 renal is > 100 µM.
As for `Nn1c(-c2ccccc2)nn(C(=O)c2ccccc2)c1=O`, the TGI in the experiment with CCRF-CEM leukemia, in the experiment on K-562 leukemia, with KM12 colon, with M14 melanoma, in the experiment on MOLT-4 leukemia and with SK-MEL-5 melanoma was > 100 µM throughout. In the experiment on UO-31 renal, the TGI was > 100 µM.
For `N#CCCC1C(C#N)C2(Cl)CC1(Cl)C(Cl)=C2Cl` (stereo not drawn), the TGI in the experiment with CCRF-CEM leukemia, in the experiment with K-562 leukemia, with KM12 colon, in the experiment on M14 melanoma, in the experiment with MOLT-4 leukemia and in the experiment on SK-MEL-5 melanoma was > 10 µM each time. Also, the TGI with UO-31 renal was > 10 µM.
Regarding `CC(C)=CCc1c2c(c3occ(-c4ccc(O)cc4)c(=O)c3c1O)CC(C(C)(C)O)O2` (stereo not drawn), the TGI with CCRF-CEM leukemia was > 100 µM; with K-562 leukemia, 42.1 µM; in the experiment on KM12 colon, 35.5 µM; in the experiment on M14 melanoma, 28.2 µM; in the experiment on MOLT-4 leukemia, 31.8 µM; with SK-MEL-5 melanoma it was 30.1 µM. This compound gave a TGI in the experiment on UO-31 renal of 22.2 µM.
`CCOC(=O)CSc1c(C(=O)OCC)c(=O)n(-c2ccccc2)c(=S)n1-c1ccccc1`: the TGI in the experiment on CCRF-CEM leukemia, in the experiment on K-562 leukemia, with KM12 colon, with M14 melanoma, in the experiment on MOLT-4 leukemia and in the experiment with SK-MEL-5 melanoma was > 100 µM throughout. Also, in the experiment with UO-31 renal, the TGI is > 100 µM.
As to `C=CC1(C)CCC2C(=CCC3C2(C)CC(O)C(O)C3(C)COC2OC(C(=O)O)C(O)C(O)C2O)C1` (stereo not drawn) (tested in a mixture with another compound), the TGI in the experiment on CCRF-CEM leukemia, with K-562 leukemia, with KM12 colon, in the experiment with M14 melanoma, in the experiment on MOLT-4 leukemia and with SK-MEL-5 melanoma was > 100 µM each time. Moreover, in the experiment on UO-31 renal, the TGI was > 100 µM.
With `Cc1c(O)c(O)cc[n+]1C1OC(CO)C(O)C1O` (stereo not drawn), the TGI in the experiment on CCRF-CEM leukemia, with DLD-1 colon, with DMS 273 small cell lung, with K-562 leukemia, in the experiment on KM12 colon and in the experiment with KM20L2 colon was > 100 µM throughout. Besides, the TGI in the experiment with M14 melanoma and in the experiment with UO-31 renal was > 100 µM throughout.
As to `CN(C(=O)C(Cc1ccccc1)NC(=O)OC(C)(C)C)C1(C(=O)NC(Cc2ccccc2)C(=O)OCc2ccccc2)CCCC1` (stereo not drawn) (Boc-Phe-[NMeAc5c]-Phe-OBn; configuration not given here), the TGI is > 100 µM in the experiment with CCRF-CEM leukemia; 97 µM with K-562 leukemia; > 100 µM with KM12 colon; 45.9 µM with M14 melanoma; 84.2 µM with MOLT-4 leukemia; > 100 µM in the experiment with SK-MEL-5 melanoma. The TGI in the experiment with UO-31 renal turned out to be 82.6 µM.
Consider `C=CCN1C[C@H](C)N([C@H](c2ccc(C(=O)NC(CC)CC)cc2)c2cccc(OC)c2)C[C@H]1C`, for which the TGI in the experiment with CCRF-CEM leukemia is > 100 µM; in the experiment with K-562 leukemia, > 100 µM; in the experiment with KM12 colon it was > 100 µM; in the experiment on M14 melanoma, 34.4 µM; in the experiment with MOLT-4 leukemia, > 100 µM; with SK-MEL-5 melanoma, 32.4 µM. Further, the TGI in the experiment with UO-31 renal was found to be 52.7 µM.
With `C=C1C(=O)O[C@@H]2C(=O)[C@@H](C)CCC/C(C)=C/CC[C@@]3(C)O[C@@H]3C[C@@H]12`, the TGI in the experiment on CCRF-CEM leukemia is 30.2 µM; in the experiment with K-562 leukemia it was 34.8 µM; with KM12 colon it was > 100 µM; in the experiment on M14 melanoma it was > 100 µM; in the experiment on MOLT-4 leukemia, > 100 µM; in the experiment on SK-MEL-5 melanoma, 56.7 µM. For the same compound, in the experiment on UO-31 renal, the TGI is > 100 µM.
As to `COc1cc(C(=O)N(C(=S)OCc2ccccn2)c2ccccc2)cc(OC)c1OC`, the TGI with CCRF-CEM leukemia, with K-562 leukemia, in the experiment with KM12 colon, in the experiment on M14 melanoma, in the experiment with MOLT-4 leukemia and with SK-MEL-5 melanoma was > 100 µM each time. Moreover, in the experiment with UO-31 renal, the TGI was 86.5 µM.
In the case of `CN1CCc2cc(N)cc3c2C1Cc1ccc(O)c(O)c1-3` (stereo not drawn), the TGI in the experiment with CCRF-CEM leukemia is 37.2 µM; in the experiment with K-562 leukemia, 85.3 µM; with KM12 colon, > 100 µM; in the experiment with M14 melanoma, > 100 µM; in the experiment with MOLT-4 leukemia, 39.9 µM; with SK-MEL-5 melanoma it was 46.5 µM. Further, the TGI in the experiment with UO-31 renal came out at 95.9 µM.
Take `O=c1ccc(-c2ccccc2)n[nH]1`: the TGI in the experiment with CCRF-CEM leukemia, in the experiment with K-562 leukemia, with KM12 colon, with M14 melanoma, in the experiment on MOLT-4 leukemia and with SK-MEL-5 melanoma was > 100 µM throughout. For the same compound, the TGI in the experiment on UO-31 renal was > 100 µM.
Turning to `COc1cc2c(c(OC)c1OC)C(=O)[C@@H]1[C@H]2N1C(N)=O`, the TGI in the experiment with CCRF-CEM leukemia, in the experiment on K-562 leukemia, in the experiment on KM12 colon, in the experiment on M14 melanoma, with MOLT-4 leukemia and with SK-MEL-5 melanoma was > 100 µM throughout. In addition, in the experiment on UO-31 renal, the TGI is > 100 µM.
Turning to `ClCCN1CCC2(CC1)SSC1(CCN(CCCl)CC1)S2`, the TGI in the experiment with CCRF-CEM leukemia is 55.6 µM; with K-562 leukemia, > 100 µM; with KM12 colon, > 100 µM; in the experiment with M14 melanoma, > 100 µM; with MOLT-4 leukemia, > 100 µM; in the experiment on SK-MEL-5 melanoma, > 100 µM. For the same compound, the TGI with UO-31 renal is > 100 µM.
Turning to `COc1ccc2cc(NC(=O)N/N=C\c3ccc([N+](=O)[O-])cc3)ccc2c1`, the TGI in the experiment with CCRF-CEM leukemia, with K-562 leukemia, with KM12 colon, in the experiment on M14 melanoma, in the experiment with MOLT-4 leukemia and in the experiment on SK-MEL-5 melanoma was > 100 µM each time. The TGI in the experiment with UO-31 renal came to 46.4 µM.
`COc1ccc(C2CC(c3c(O)ccc4ccccc34)=NN2C(C)=O)cc1OC` (stereo not drawn): the TGI in the experiment on CCRF-CEM leukemia was 36.6 µM; with K-562 leukemia it was 43.8 µM; with KM12 colon it was > 100 µM; in the experiment with M14 melanoma it was 69.4 µM; in the experiment with MOLT-4 leukemia it was 53.6 µM; in the experiment with SK-MEL-5 melanoma it was 71.8 µM. Further, in the experiment with UO-31 renal, the TGI came out at 83.3 µM.
In the case of `O=C1C=CC(=O)c2c1ccc1c3ccccc3n(CCCCCCCCCCCCn3c4ccccc4c4ccc5c(c43)C(=O)C=CC5=O)c21`, the TGI in the experiment on CCRF-CEM leukemia was 74.1 µM; in the experiment on K-562 leukemia, > 100 µM; in the experiment on KM12 colon, > 100 µM; with M14 melanoma, > 100 µM; in the experiment with MOLT-4 leukemia, > 90.5 µM; in the experiment with SK-MEL-5 melanoma, > 100 µM. In addition, in the experiment with UO-31 renal, the TGI is > 100 µM.
`CCCCCCCCCCCCCCNC(=O)CCC(NC(=O)c1ccc(N(C)Cc2cnc3nc(N)nc(N)c3n2)cc1)C(=O)NCCCCCCCCCCCCCC` (stereo not drawn): the TGI is > 31.6 µM with CCRF-CEM leukemia; > 100 µM in the experiment on K-562 leukemia; 18 µM in the experiment on KM12 colon; > 40.4 µM with M14 melanoma; 27.3 µM in the experiment on MOLT-4 leukemia; > 81.7 µM with SK-MEL-5 melanoma. For the same compound, the TGI in the experiment on UO-31 renal is 53.6 µM.
Turning to `C[C@]12CCC(O)CC1=CC[C@@H]1[C@@H]2CC[C@]2(C)C(=O)[C@H](n3ccnc3)C[C@@H]12` (stereo partly drawn), the TGI was > 100 µM in the experiment with CCRF-CEM leukemia; > 100 µM in the experiment with K-562 leukemia; > 100 µM in the experiment on KM12 colon; > 100 µM in the experiment on M14 melanoma; 53.1 µM in the experiment on MOLT-4 leukemia; 45.2 µM in the experiment on SK-MEL-5 melanoma. Moreover, in the experiment on UO-31 renal, the TGI was > 100 µM.
Regarding `COc1ccc(N/N=C2\CCOc3ccc(C)cc3C2=O)cc1`, the TGI in the experiment with CCRF-CEM leukemia is > 100 µM; with K-562 leukemia, > 100 µM; with KM12 colon, > 100 µM; in the experiment with M14 melanoma, > 100 µM; in the experiment on MOLT-4 leukemia it was 85.4 µM; in the experiment on SK-MEL-5 melanoma, 50.6 µM. The TGI with UO-31 renal is > 100 µM.
